Each structure is given as a SMILES string.

For data set [1] the following is noted: rat IV; mean (% CV); cited from earlier work.
The test system of data set [2] is COX1 synthesis in mitochondria isolated from HEK293 cells. The experiment in a line: Mitochondrial in organello translation. The class given is biochemical, human. To be noted: even up to 1 mM.
Data set [3] in a line: in vitro. In kind it is in vitro ADME. To be noted: rat, microsomes.
For data set [4] the following is noted: mean (% CV); cited from earlier work.

The term share remaining denotes what is left of the initial amount, in per cent. As to `CN[C@@H]1[C@H](O)[C@H](NC)[C@H]2O[C@@]3(O)C(=O)C[C@@H](C)O[C@H]3O[C@@H]2[C@H]1O` [Spectinomycin, spectinomycin], in data set [1], the “% excreted unchanged in urine” value is on record as 55.3 (27.0)^2%, the CL is given as 0.60 (11.5)^2 L/h/kg, the Vd is 0.76 (45.2)^2 L/kg and the t½ is 0.75 (49.3)^2 h. In addition, the “Inhibition of in organello mitochondrial translation” value in data set [2] is reported as “did not inhibit”. In data set [3], this compound had a share remaining at 1.5 h of 80.4%. Further, the “Protein serum binding (Rat) % bound” value in data set [4] is recorded as 12.7 (7.5)^2%.

Values taken from article PMC3972818 (Nature medicine, 2014).
